Laboratory results as given in patent US11566007B2, “Ras inhibitors” (Revolution Medicines, Inc., priority 2019, dated 2023).

Experiments:
[1] = target: KRAS WT (Homo sapiens (Human), UniProt P01116+P62937); assay: Ras-Raf (BRAF RBD) disruption / FRET / MOA assay, KRAS WT; assay type: biochemical; settings: read-out: IC50* KRAS WT FRET data
In short: (§1)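 Compounds, top final concentration 30 μM in 10-point 3-fold series, incubated 3 hours at 25° C with nucleotide-loaded Ras, cyclophilin A and BRAF RBD.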

[2] = target: KRAS G12D (Homo sapiens (Human), UniProt P01116+P62937, G12D); assay: Ras-Raf (BRAF RBD) disruption / FRET / MOA assay, KRAS G12D; assay type: biochemical; settings: Ras-Raf disruption/FRET/MOA assay; class symbols; read-out: KRAS G12D FRET data IC50
In short: as §1

[3] = target: KRAS G12V (Homo sapiens (Human), UniProt P01116+P62937, G12V); assay: Ras-Raf (BRAF RBD) disruption / FRET / MOA assay, KRAS G12V; assay type: biochemical; settings: read-out: IC50* KRAS G12V FRET data
In short: as §1

[4] = test system: NCI-H358 (K-Ras G12C); assay: CellTiter-Glo cell viability assay, NCI-H358; assay type: cell-based, human; settings: Homo sapiens, NCI-H358, 120 h, NCI-H358, 5-day treatment; class symbols; read-out: Additional H358 Cell Viability assay data (K-Ras G12C, IC50)
In short: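 Compounds dispensed directly onto seeded K-Ras mutant cells; plates read on day 5 after ~30 min equilibration to room temperature, by CellTiter-Glo luminescence. Signal normalized as (sample/mean DMSO)×100, then fitted to a four-parameter logistic curve.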

[5] = target: NRAS G12C (Homo sapiens (Human), UniProt P01111+P62937, G12C); assay: Ras-Raf (BRAF RBD) disruption / FRET / MOA assay, NRAS G12C; assay type: biochemical; settings: read-out: IC50* NRAS G12C FRET data
In short: as §1

[6] = target: KRAS G12S (Homo sapiens (Human), UniProt P01116+P62937, G12S); assay: Ras-Raf (BRAF RBD) disruption / FRET / MOA assay, KRAS G12S; assay type: biochemical; settings: Ras-Raf disruption/FRET/MOA assay; class symbols; read-out: KRAS G12S FRET data IC50
In short: as §1

[7] = target: KRAS G13D (Homo sapiens (Human), UniProt P01116+P62937, G13D); assay: Ras-Raf (BRAF RBD) disruption / FRET / MOA assay, KRAS G13D; assay type: biochemical; settings: read-out: IC50* KRAS G13D FRET data
In short: as §1

[8] = test system: NCI-H358 cells (K-Ras G12C); assay: Potency assay: pERK in NCI-H358 cells; assay type: cell-based, human; settings: Homo sapiens, NCI-H358; H358 KRAS G12C; read-out: pERK EC50
In short: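 pERK decrease read by AlphaLISA SureFire p-ERK1/2 or In-Cell Western after 4 h compound exposure at 37 °C, 5% CO2.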

[9] = target: K-Ras G12C (Homo sapiens (Human), UniProt P01116+P62937, G12C); assay: Ras-Raf (BRAF RBD) disruption / FRET / MOA assay, KRAS G12C; assay type: biochemical; settings: KRAS G12C; Ras-Raf disruption/FRET/MOA assay; read-out: IC50* KRAS G12C FRET data
In short: as §1

[10] = target: K-Ras G13C (Homo sapiens (Human), UniProt P01116+P62937, G13C); assay: Ras-Raf (BRAF RBD) disruption / FRET / MOA assay, KRAS G13C; assay type: biochemical; settings: KRAS G13C; Ras-Raf disruption/FRET/MOA assay; read-out: IC50* KRAS G13C FRET data
In short: as §1

Sequence of KRAS G12D (P01116-2 other isoform, or with tags, fused parts or gaps G12D): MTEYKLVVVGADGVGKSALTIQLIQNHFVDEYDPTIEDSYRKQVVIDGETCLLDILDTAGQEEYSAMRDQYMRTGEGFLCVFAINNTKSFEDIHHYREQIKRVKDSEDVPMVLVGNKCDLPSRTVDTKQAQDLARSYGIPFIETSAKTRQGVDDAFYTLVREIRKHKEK
Sequence of KRAS G12D (P62937 whole entry): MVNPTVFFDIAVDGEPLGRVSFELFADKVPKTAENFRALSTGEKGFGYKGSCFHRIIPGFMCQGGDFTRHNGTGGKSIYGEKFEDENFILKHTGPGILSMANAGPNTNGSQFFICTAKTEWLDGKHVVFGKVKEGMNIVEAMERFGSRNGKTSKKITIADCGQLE
Sequence of NRAS G12C (P01111 whole entry G12C): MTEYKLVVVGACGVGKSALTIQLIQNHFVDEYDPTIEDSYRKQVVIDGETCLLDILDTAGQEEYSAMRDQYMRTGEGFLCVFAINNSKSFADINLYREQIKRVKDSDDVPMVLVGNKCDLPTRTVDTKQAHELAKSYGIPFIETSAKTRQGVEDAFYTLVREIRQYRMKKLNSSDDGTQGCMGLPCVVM
Sequence of NRAS G12C (P62937 whole entry): as the sequence (P62937 whole entry) above
Sequence of KRAS G12V (P01116-2 other isoform, or with tags, fused parts or gaps G12V): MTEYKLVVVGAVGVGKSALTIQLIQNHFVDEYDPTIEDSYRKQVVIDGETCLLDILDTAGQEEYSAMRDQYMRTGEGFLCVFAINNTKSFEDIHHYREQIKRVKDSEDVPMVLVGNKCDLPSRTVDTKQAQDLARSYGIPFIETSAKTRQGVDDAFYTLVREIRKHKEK
Sequence of KRAS G12V (P62937 whole entry): as the sequence (P62937 whole entry) above
Sequence of K-Ras G13C (P01116-2 other isoform, or with tags, fused parts or gaps G13C): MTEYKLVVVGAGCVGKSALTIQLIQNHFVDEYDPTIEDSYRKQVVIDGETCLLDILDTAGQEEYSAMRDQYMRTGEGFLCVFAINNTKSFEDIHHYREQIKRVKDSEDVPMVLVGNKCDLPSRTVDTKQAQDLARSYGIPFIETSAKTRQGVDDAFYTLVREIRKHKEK
Sequence of K-Ras G13C (P62937 whole entry): as the sequence (P62937 whole entry) above
Sequence of K-Ras G12C (P01116-2 other isoform, or with tags, fused parts or gaps G12C): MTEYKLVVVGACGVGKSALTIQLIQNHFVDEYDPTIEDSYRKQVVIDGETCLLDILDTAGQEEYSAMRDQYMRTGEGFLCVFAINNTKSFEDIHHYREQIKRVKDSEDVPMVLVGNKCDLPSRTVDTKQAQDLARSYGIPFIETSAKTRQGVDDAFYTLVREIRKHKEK
Sequence of K-Ras G12C (P62937 whole entry): as the sequence (P62937 whole entry) above
Sequence of KRAS G13D (P01116-2 other isoform, or with tags, fused parts or gaps G13D): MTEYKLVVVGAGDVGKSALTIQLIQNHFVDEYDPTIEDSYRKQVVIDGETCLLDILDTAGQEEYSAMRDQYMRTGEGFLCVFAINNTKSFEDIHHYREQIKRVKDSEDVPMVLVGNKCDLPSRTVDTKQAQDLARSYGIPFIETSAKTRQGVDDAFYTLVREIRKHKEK
Sequence of KRAS G13D (P62937 whole entry): as the sequence (P62937 whole entry) above
Sequence of KRAS WT (P01116-2 other isoform, or with tags, fused parts or gaps): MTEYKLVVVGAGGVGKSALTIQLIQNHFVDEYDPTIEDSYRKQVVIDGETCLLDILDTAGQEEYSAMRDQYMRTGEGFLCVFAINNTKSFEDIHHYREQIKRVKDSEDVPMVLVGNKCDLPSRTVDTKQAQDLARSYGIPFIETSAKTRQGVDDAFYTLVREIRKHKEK
Sequence of KRAS WT (P62937 whole entry): as the sequence (P62937 whole entry) above
Sequence of KRAS G12S (P01116-2 other isoform, or with tags, fused parts or gaps G12S): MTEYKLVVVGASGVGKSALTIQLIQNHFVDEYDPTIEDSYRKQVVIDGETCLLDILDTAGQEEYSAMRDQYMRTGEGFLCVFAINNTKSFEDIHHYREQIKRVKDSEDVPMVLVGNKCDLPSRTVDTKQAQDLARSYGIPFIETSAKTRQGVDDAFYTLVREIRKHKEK
Sequence of KRAS G12S (P62937 whole entry): as the sequence (P62937 whole entry) above

Row | Structure (SMILES) | IC50 [1] [nM] | IC50 [2] [nM] | IC50 [3] [nM] | IC50 [4] [nM] | IC50 [5] [nM] | IC50 [6] [nM] | IC50 [7] [nM] | EC50 [8] [nM] | IC50 [9] [nM] | IC50 [10] [nM]
1 | CCn1c(-c2cccnc2)c2c3cc(ccc31)-c1cc(O)cc(c1)C[C@H](NC(=O)[C@H](C(C)C)N(C)C(=O)[C@H]1CCN(C(=O)C#CCN(C)C)C1)C(=O)N1CCC[C@H](N1)C(=O)OCC(C)(C)C2 [Example A142] | > 10000 | 1000 to 10000 | > 10000 | 100 to 1000 | 10 to 100 | > 10000 | 1000 to 10000 | < 5000 | 10 to 100 | 100 to 1000
2 | C=CC(=O)N1CCN(C(=O)N(C)[C@H](C(=O)N[C@H]2Cc3cc(O)cc(c3)-c3ccc4c(c3)c(c(-c3ccccc3CCOC)n4CC)CC(C)(C)COC(=O)[C@@H]3CCCN(N3)C2=O)C(C)C)C[C@H]1COC [Example A146] | 1000 to 10000 | > 10000 | 1000 to 10000 | 100 to 1000 | 100 to 1000 | 1000 to 10000 | 1000 to 10000 | < 5000 | 100 to 1000 | 100 to 1000
3 | C=CC(=O)N(C)CC(=O)N(C)[C@H](C(=O)N[C@H]1Cc2cc(O)cc(c2)-c2ccc3c(c2)c(c(-c2cccnc2COC)n3CC)CC(C)(C)COC(=O)[C@@H]2CCCN(N2)C1=O)C(C)C [Example A147] | 100 to 1000 | 1000 to 10000 | 100 to 1000 | 10 to 100 | 100 to 1000 | 100 to 1000 | 1000 to 10000 | < 5000 | 100 to 1000 | 100 to 1000
4 | C#CC(=O)N1CC[C@H](C(=O)N(C)[C@H](C(=O)N[C@H]2Cc3cc(O)cc(c3)-c3ccc4c(c3)c(c(-c3cnccc3[C@H](C)OC)n4CC)CC(C)(C)COC(=O)[C@@H]3CCCN(N3)C2=O)C(C)C)C1 [Example A150] | 100 to 1000 | 1000 to 10000 | 100 to 1000 | < 10 | 10 to 100 | 100 to 1000 | 100 to 1000 | < 5000 | 10 to 100 | 10 to 100
5 | CCn1c(-c2cccnc2)c2c3cc(ccc31)-c1cccc(c1)C[C@H](NC(=O)[C@H](C(C)C)N(C)C(=O)[C@H]1CCN(C(=O)C#CCN(C)C)C1)C(=O)N1CCC[C@H](N1)C(=O)OCC(C)(C)C2 [Example A152] | 1000 to 10000 | 1000 to 10000 | 1000 to 10000 | 10 to 100 | 10 to 100 | > 10000 | 1000 to 10000 | < 5000 | 10 to 100 | 1000 to 10000
6 | CCn1c(-c2cnccc2COC)c2c3cc(ccc31)-c1cc(O)cc(c1)C[C@H](NC(=O)[C@H](C(C)C)N(C)C(=O)[C@H]1CCN(C(=O)C(C)(C)N(C)C)C1)C(=O)N1CCC[C@H](N1)C(=O)OCC(C)(C)C2 [Example A153] | 100 to 1000 | 100 to 1000 | 100 to 1000 | 100 to 1000 | 10 to 100 | 100 to 1000 | 100 to 1000 | < 5000 | 10 to 100 | 100 to 1000
7 | C=CC(=O)N1CC[C@H](C(=O)N(C)[C@H](C(=O)N[C@H]2Cc3cc(O)cc(c3)-c3ccc4c(c3)c(c(-c3cn(C)nc3[C@H](C)OC)n4CC)CC(C)(C)COC(=O)[C@@H]3CCCN(N3)C2=O)C(C)C)C1 [Example A154] | 1000 to 10000 | 1000 to 10000 | 100 to 1000 | 10 to 100 | 10 to 100 | 100 to 1000 | 1000 to 10000 | < 5000 | 10 to 100 | 1000 to 10000
8 | CCn1c(-c2cccnc2COC)c2c3cc(ccc31)-c1cc(C)cc(c1)C[C@H](NC(=O)[C@H](C(C)C)N(C)C(=O)[C@H]1CCN(C(=O)C#CCN(C)C)C1)C(=O)N1CCC[C@H](N1)C(=O)OCC(C)(C)C2 [Example A156] | > 10000 | 1000 to 10000 | > 10000 | 10 to 100 | 100 to 1000 | > 10000 | 1000 to 10000 | < 5000 | 10 to 100 | 1000 to 10000
